{"source": "patent US20180221336A1", "about": "“DOSE SPARING KETOROLAC FORMULATIONS AND METHODS AND DEVICES FOR USE WITH SAME” (SteadyMed, Ltd., priority 2017, published 2018)", "key": {"[1]": {"experiment": "Simulation of plasma Ketorolac concentrations with the MMSPK population pharmacokinetic model (NONMEM)", "parameters": "species or system human", "conditions": "population PK model parameter estimate", "excerpt": "A modified version of the Mandema-Stanski published model for Ketorolac (termed the Modified Mandema-Stanski PK model, or the MMSPK Model) was developed in steps; a base model development step for description of structural components of the model followed by a covariate analysis. For the latter the base model output was used to conduct a graphical evaluation of the covariates at first. A full model including all relevant covariate effects (e.g. each covariate-parameter relationship which was significant during single covariate model testing was included in the full model) was then developed. A final model was chosen by retaining only the statistically significant covariate effects. The parameters in the population models were estimated using the NONMEM software program (version 7.3). The stochastic approximation estimation method (SAEM) was used for estimation. A visual predictive check (VPC) was conducted for the model using all data.\nSimulations: Once the model was qualified, stochastic simulations were conducted to assess the expected range of concentrations following several dose regimens. […]\nFor each simulation scenario 800 subjects were simulated. […] The simulation outputs were assessed graphically and summaries of key metrics (see Table 1) were summarized and tabled. […]"}, "[2]": {"conditions": "oral KT; literature value used in simulations; cited from earlier work"}, "clinical": {"experiment": "clinical", "conditions": "human, plasma", "description": "(§1) Twelve (12) subjects were randomized to receive a total daily dose of 120 mg Ketorolac tromethamine (Ketorolac Tromethamine Injection, USP 30 mg/mL, manufactured by Hospira Inc., Lot No.: 51600LL) administered as either: (Treatment A) one continuous SC infusion of 4 mL to the abdomen over 24 hours at a steady rate of 5 mg/hr (0.167 mL/hr), or (Treatment B) four IM bolus injections of 30 mg (1 mL) to alternating gluteus maximus muscle every 6 hours. […] The treatments were separated by a washout period of ≥4 days. The total daily dose of 120 mg Ketorolac tromethamine administered as 4×30 mg/mL IM bolus injections is a recommended treatment for subjects under 65 years of age according to the product labeling.\n(§2) Blood samples for the determination of plasma Ketorolac following continuous SC infusion (Treatment A) were collected at the following time points: pre-dose (0 hour), 0.25, 0.5, 1, 1.5, 2, 4, 6, 8, 10, 12, 14, 16, 18, 20, 22, 23, 24 (2 blood samples were collected at the 24 hour time point; 1 immediately prior to the end of infusion and 1 immediately following end of infusion), 24.167, 24.33, 24.5, 25, 26, 28, 30, 32, 36, and at 48 hours post-dose. The time for post-dose blood collection are expressed relative to the start of infusion.\n(§3) Blood samples for the determination of plasma Ketorolac following IM injections (Treatment B) were collected at the following time points: pre-dose (0 hour), 0.167, 0.25, 0.5, 0.75, 1, 1.25, 1.5, 2, 3, 4, 6 (pre-dose), 6.25, 6.5, 6.75, 7, 8, 10, 12 (pre-dose), 12.25, 12.75, 13, 14, 16, 18 (pre-dose), 18.25, 18.5, 18.75, 19, 20, 22, 24, 28, 32, and at 48 hours post-dose. The time for post-dose blood collection are expressed relative to the first IM injection.\n(§4) Ketorolac plasma concentrations were determined using a validated liquid chromatographic tandem mass spectrometry (LC-MS/MS) method, with a lower limit of quantitation (LLOQ) of 10.0 ng/mL9. The validated plasma Ketorolac concentration range was 10.0 to 5000 ng/mL. Assay performance was monitored using quality control (QC) samples at concentrations of 30.0 ng/mL, 200 ng/mL, and 3800 ng/mL; the % CV for the QCs ranged from 1.3% to 15.1% and accuracy was 91.6-102.5%.\n(§5) Non-compartmental PK parameters were calculated from Ketorolac concentrations-time data in plasma using Phoenix® WinNonlin® Professional (Versions 6.3; Pharsight, Mountain View, Calif.). […] AUC0-inf was calculated as the sum AUC0-last plus the ratio of the last measurable plasma concentration (Clast) to kel; AUC0-last, AUC0-24, and AUCtau were calculated by the linear trapezoidal summation method; AUCext was calculated as 1-AUC0-last/AUC0-inf multiplied by 100, Cmax, Ctrough, tmax were reported as observed values; Cavg was calculated as AUCtau divided by 6 hours for the IM administration; Css was calculated as the average of the concentrations from the time steady-state was reached until the end of SC infusion; CL/F was calculated as dose/AUC0-inf (for SC administration) or dose/AUCtau (for IM administration); Vz/F was calculated as (CL/F)/kel); kel was calculated by linear least-square regression analysis using the maximum number of points in the terminal log-linear phase (using 3 or more non-zero plasma concentrations); t½ was calculated as ln(2)/kel.\n(§6) Statistical analyses were conducted to compare Ketorolac AUC0 24, AUC0 last, and Cmax following continuous SC infusion and repeat IM bolus injections. A SAS® mixed model procedure was performed on the natural log (ln)-transformed PK parameters."}, "[3]": {"experiment": "Safety assessments (adverse events, vital signs, ECG, injection/infusion site) in the crossover study in healthy subjects", "description": "Twelve (12) subjects were randomized to receive a total daily dose of 120 mg Ketorolac tromethamine (Ketorolac Tromethamine Injection, USP 30 mg/mL, manufactured by Hospira Inc., Lot No.: 51600LL) administered as either: (Treatment A) one continuous SC infusion of 4 mL to the abdomen over 24 hours at a steady rate of 5 mg/hr (0.167 mL/hr), or (Treatment B) four IM bolus injections of 30 mg (1 mL) to alternating gluteus maximus muscle every 6 hours. For the continuous SC infusion, the MedFusion 3500 syringe pump was assembled with Animas Inset Infusion Set 23 inch 6 mm 10/box Grey (100-182-00), B-D Luer-Lok Syringe 5 mL and B-D 20 G 1 inch needle (Becton Dickinson). The treatments were separated by a washout period of ≥4 days.\nAll subjects underwent pre-dose (each period) and post-study assessments including physical examinations, routine laboratory tests, vital signs, and 12-lead electrocardiograms (ECGs). Alcohol and drug screen were conducted before each dosing period. All subjects were between 19 and 55 years old with a body mass index (BMI) between 18.5 and 30.0 kg/m2. Subjects had to refrain from the use of any prescription medications including over-the-counter products, herbal products or vitamin supplement within 14 days of dosing."}, "[4]": {"conditions": "for plasma Ketorolac concentration (predose Ctrough), Geometric LSM: Treatment B four IM bolus injections every 6 hours", "description": "as §1, §2, §3, §4, §5, §6"}, "[5]": {"conditions": "Treatment A (Test, N = 11): continuous SC infusion over 24 hours"}, "[6]": {"conditions": "Treatment A versus Treatment B, 100 * (test/reference)"}, "[7]": {"conditions": "Treatment A: 120 mg continuous SC infusion over 24 hours, N = 11, geom. mean (geom. CV %)"}, "[8]": {"conditions": "Treatment A: 120 mg continuous SC infusion over 24 hours, N = 11, mean ± SD"}, "[9]": {"conditions": "Treatment A, individual spline (quadratic plateau) regression, N 11"}, "[10]": {"conditions": "Treatment A, individual spline (quadratic plateau) regression, N 11, listed as Ketorolac tromethamine"}, "[11]": {"conditions": "Treatment B (Reference, N = 12): four IM bolus injections of 30 mg every 6 hours"}}, "note": "Where two headings read alike, the source gives them in different places."}
{"smiles": "O=C(c1ccccc1)c1ccc2n1CCC2C(=O)O", "note": "(racemic) [Ketorolac, (±)-5-benzoyl-2,3-dihydro-1H-pyrrolizine-1-carboxylic acid, compound with 2-amino-2-(hydroxymethyl)-1,3-propanediol]", "values": [{"measurement": "CL estimate (MMSPK model)", "setting": "[1]", "result": 2.92, "unit": "L/h"}, {"measurement": "estimated Ka for IM absorption (MMSPK model)", "setting": "[1]", "result": 11.6, "unit": "h⁻¹"}, {"measurement": "Ka", "setting": "[2]", "result": 11, "unit": "h⁻¹"}, {"measurement": "absorption lag time", "setting": "[2]", "result": 0.2, "unit": "h"}, {"measurement": "half-life", "setting": "clinical; 120 mg", "result": "~7", "unit": "h"}, {"measurement": "AUC", "setting": "clinical; im, 30 mg", "result": 6810, "unit": "ng·h/mL"}, {"measurement": "AUC(0-t)", "setting": "clinical; im, 30 mg", "result": 23600, "unit": "ng·h/mL"}, {"measurement": "Cmax", "setting": "clinical; im, 30 mg", "result": 2240, "unit": "ng/mL"}, {"measurement": "Tmax", "setting": "clinical; im, 30 mg", "result": 9.25, "unit": "h"}, {"measurement": "Vd/F", "setting": "clinical; im, 30 mg", "result": "30.3 ± 7.69", "unit": "L"}, {"measurement": "half-life", "setting": "clinical; im, 30 mg", "result": "7.02 ± 1.44", "unit": "h"}, {"measurement": "AUC(0-inf)", "setting": "clinical; sc, 120 mg", "result": 29100, "unit": "ng·h/mL"}, {"measurement": "AUC(0-t)", "setting": "clinical; sc, 120 mg", "result": 21500, "unit": "ng·h/mL"}, {"measurement": "Cmax", "setting": "clinical; sc, 120 mg", "result": 1340, "unit": "ng/mL"}, {"measurement": "Tmax", "setting": "clinical; sc, 120 mg", "result": 23, "unit": "h"}, {"measurement": "Vd/F", "setting": "clinical; sc, 120 mg", "result": "29.1 ± 10.9", "unit": "L"}, {"measurement": "concentration at 4 h", "setting": "clinical; sc, 120 mg", "result": 617, "unit": "ng/mL"}, {"measurement": "concentration at 6 h", "setting": "clinical; sc, 120 mg", "result": 718, "unit": "ng/mL"}, {"measurement": "concentration at 8 h", "setting": "clinical; sc, 120 mg", "result": 838, "unit": "ng/mL"}, {"measurement": "concentration at 10 h", "setting": "clinical; sc, 120 mg", "result": 894, "unit": "ng/mL"}, {"measurement": "concentration at 12 h", "setting": "clinical; sc, 120 mg", "result": 946, "unit": "ng/mL"}, {"measurement": "concentration at 14 h", "setting": "clinical; sc, 120 mg", "result": 1020, "unit": "ng/mL"}, {"measurement": "concentration at 16 h", "setting": "clinical; sc, 120 mg", "result": 1050, "unit": "ng/mL"}, {"measurement": "concentration at 18 h", "setting": "clinical; sc, 120 mg", "result": 1160, "unit": "ng/mL"}, {"measurement": "concentration at 20 h", "setting": "clinical; sc, 120 mg", "result": 1210, "unit": "ng/mL"}, {"measurement": "concentration at 22 h", "setting": "clinical; sc, 120 mg", "result": 1200, "unit": "ng/mL"}, {"measurement": "concentration at 23 h", "setting": "clinical; sc, 120 mg", "result": 1230, "unit": "ng/mL"}, {"measurement": "concentration at 24 h", "setting": "clinical; sc, 120 mg", "result": 1170, "unit": "ng/mL"}, {"measurement": "half-life", "setting": "clinical; sc, 120 mg", "result": "6.93 ± 0.84", "unit": "h"}, {"measurement": "infusion site adverse event", "setting": "[3]; Treatment A, 13 minutes following completion of the 24-hour infusion, resolved in approximately 2 days, possibly related to study drug", "result": "One subject experienced mild infusion site pain"}, {"measurement": "injection site adverse event", "setting": "[3]; Treatment B, approximately 6.5 hours after the 4th IM injection, resolved in 15 days, not related to study drug", "result": "Another subject experienced mild injection site hemorrhage"}, {"measurement": "subjects experiencing TEAEs following each treatment arm", "setting": "[3]; each of Treatment A and Treatment B", "result": 2, "unit": "subjects"}, {"measurement": "safety and tolerability", "setting": "[3]; total dose of 120 mg via continuous SC infusion", "result": "safe and well tolerated"}, {"measurement": "vital sign, ECG, or injection/infusion site reaction results", "setting": "[3]; whole study", "result": "no clinically significant trends"}, {"measurement": "subjects experiencing TEAEs", "setting": "[3]; whole study, 12 subjects", "result": "4 (33%) subjects"}, {"measurement": "deaths or serious adverse events (SAEs)", "setting": "[3]; whole study, both treatments", "result": "no deaths or serious adverse events (SAEs)"}, {"measurement": "number of mild treatment emergent adverse events (TEAEs)", "setting": "[3]; whole study, both treatments", "result": 7}, {"measurement": "AUC0-24 Geometric LSM", "setting": "[4]; [5]", "result": 21510, "unit": "ng·h/mL"}, {"measurement": "AUC0-last Geometric LSM", "setting": "[4]; [5]", "result": 28260, "unit": "ng·h/mL"}, {"measurement": "overall Tss (time to steady-state)", "setting": "[4]; Treatment A SC infusion, Helmert contrast", "result": 18, "unit": "h"}, {"measurement": "overall exposure (AUC0-24 and AUC0-last), SC infusion compared with IM bolus injections", "setting": "[4]; Treatment A versus Treatment B", "result": "similar"}, {"measurement": "Cmax lower following continuous SC infusion compared to 4 IM bolus injections", "setting": "[4]; Treatment A versus Treatment B, 120 mg total daily dose", "result": 40, "unit": "%"}, {"measurement": "AUC0-24 Geometric Mean Ratio", "setting": "[4]; [6]", "result": 91.23, "unit": "%"}, {"measurement": "AUC0-last Geometric Mean Ratio", "setting": "[4]; [6]", "result": 101.53, "unit": "%"}, {"measurement": "Cmax—all Geometric Mean Ratio", "setting": "[4]; [6]", "result": 59.86, "unit": "%"}, {"measurement": "AUC0-last", "setting": "[4]; [7]", "result": "28.48 (30.9) μg * hr/mL"}, {"measurement": "Cmax—all", "setting": "[4]; [7]", "result": "1.344 (25.6) μg/mL"}, {"measurement": "AUC%extrap", "setting": "[4]; [8]", "result": "1.96 ± 1.2860", "unit": "%"}, {"measurement": "Css", "setting": "[4]; [8]", "result": "1238 ± 299.6", "unit": "ng/mL"}, {"measurement": "Kel", "setting": "[4]; Treatment A: 120 mg continuous SC infusion over 24 hours, mean ± SD", "result": "0.1014 ± 0.01213", "unit": "h⁻¹"}, {"measurement": "CL/F", "setting": "[4]; Treatment A: 120 mg continuous SC infusion over 24 hours, mean ± SD, listed as Ketorolac tromethamine", "result": "2.924 ± 0.9799", "unit": "L/h"}, {"measurement": "Plateau Concentration, Mean (SD)", "setting": "[4]; [9]", "result": "1053 (234.5) ng/mL"}, {"measurement": "Plateau Concentration, Median (Min, Max)", "setting": "[4]; [9]", "result": 1084, "unit": "ng/mL"}, {"measurement": "Time to Steady-State, Mean (SD)", "setting": "[4]; [9]", "result": "6.30 (4.17) hr"}, {"measurement": "Time to Steady-State, Median (Min, Max)", "setting": "[4]; [9]", "result": 4, "unit": "h"}, {"measurement": "Plateau Concentration, Median (Min, Max)", "setting": "[4]; [10]", "result": "1084 (572.4, 1426) ng/mL"}, {"measurement": "Time to Steady-State, Median (Min, Max)", "setting": "[4]; [10]", "result": "3.68 (1.98, 13.63) hr"}, {"measurement": "AUC0-24 Geometric LSM", "setting": "[4]; [11]", "result": 23580, "unit": "ng·h/mL"}, {"measurement": "AUC0-last Geometric LSM", "setting": "[4]; [11]", "result": 27830, "unit": "ng·h/mL"}, {"measurement": "plasma Ketorolac concentration (predose Ctrough), Geometric LSM", "setting": "[4]; Hour 6", "result": 302.545}, {"measurement": "plasma Ketorolac concentration (predose Ctrough), Geometric LSM", "setting": "[4]; Hour 12", "result": 368.216}, {"measurement": "plasma Ketorolac concentration (predose Ctrough), Geometric LSM", "setting": "[4]; Hour 18", "result": 432.393}, {"measurement": "plasma Ketorolac concentration (predose Ctrough), Geometric LSM", "setting": "[4]; Hour 24", "result": 564.178}, {"measurement": "Ctrough (LSM) at the highest", "setting": "[4]; following IM injections (Treatment B)", "result": 564.2, "unit": "ng/mL"}, {"measurement": "Individual Tss (spline method), range", "setting": "[4]; following SC infusion (Treatment A)", "result": "2.0 to 14", "unit": "h"}, {"measurement": "geometric LSM Css", "setting": "[4]; following SC infusion (Treatment A), Helmert contrast", "result": 1160, "unit": "ng/mL"}]}
